From patent US10654820B2, “Crystal form of tasimelteon” (ZHEJIANG JINGXIN PHARMACEUTICAL CO., LTD., priority 2016, dated 2020)
In brackets after ≈: the same amount, converted by molar mass. Entries after “also recorded” stand apart in the source; their conditions may differ.

Key:
[1] = system: totally blind subjects diagnosed with non-24; conditions: cited from earlier work
[2] = Thermogravimetric analysis (TGA), thermal stability; format: physicochemical; conditions: for thermal stability: result in words
Description: Thermogravimetric Analysis (TGA)
TGA was performed on a TA instruments SDT Q600 thermogravimetric analyzer. The samples were heated over the temperature range room temperature of 30-365° C. at a constant heating rate of 10° C./min. The samples were purged with a stream of flowing nitrogen at 120 ml/min throughout the experiment.

[3] = Intrinsic dissolution studies in water; format: physicochemical; conditions: 37° C., 150 r.p.m., compressed disk
Description: Example 23 Intrinsic Dissolution Studies
200 mg of crystal form I or crystal form II was taken in the intrinsic attachment and compressed to a 1.33 cm^2 and 0.1 cm thick of disk using a hydraulic press at a pressure of 9 MPa for 60 s. The intrinsic attachment was placed in a jar of 100 mL of water to 37° C. and rotated at 150 r.p.m. 1 milliliter of the aliquot each is collected at specific time intervals and blank medium of the same volume and temperature is added, and the absorbance at max (281 nm) is measured, and the cumulative dissolution rate is calculated to plot the concentration-time standard curves of the respective compounds.

[4] = Solubility in water at 37° C. (equilibrium solubility, 72 hours, absorbance at 281 nm); format: physicochemical; conditions: balanced for 72 hours
Description: Example 22 Solubility in Water at 37° C.
Move 25 ml water into a 50 ml eggplant bottle separately, add crystal form I and crystal form II Tasimelteon separately, stir in a constant temperature oil bath to balance for 72 hours, and then filtrate by 0.45 microporous membrane. The filtrate is diluted by water. The water solubilities of crystal form I and crystal form II at 37° C. were determined by calculating each sample concentration of its saturated solution determined through measuring absorbance at λmax (281 nm). Standard curve method is used to calculate the equilibrium solubility.

Row | Compound | proportion of individuals becoming entrained to the 24-hour cycle ([1]; physiologic monitoring, compared with placebo) | efficacy on nighttime wakefulness and daytime napping ([1]; totally blind subjects diagnosed with non-24) | thermal stability [2] | intrinsic dissolution rate ([3]; FIG. 9) | intrinsic dissolution rate ([3]; FIG. 9, listed as form I) | solubility at 72 h ([4]; 37 °C, thermodynamic from solid) | decomposition temperature (TGA) ([2]; heating rate of 10° C./min, nitrogen) | water solubility [4]
1 | CCC(=O)NC[C@@H]1C[C@H]1c1cccc2c1CCO2 [Tasimelteon, (1R-2R)—N-[2-(2,3-dihydrobenzofuran-4-yl)cyclopropylmethyl]propanamide] | higher proportion of individuals becoming entrained to the 24-hour cycle compared with placebo | reducing both nighttime wakefulness and daytime napping |  |  |  |  |  | 
2 | CCC(=O)NC[C@@H]1C[C@H]1c1cccc2c1CCO2 [crystal form I, (1R-2R)—N-[2-(2,3-dihydrobenzofuran-4-yl)cyclopropylmethyl]propanamide] |  |  | good thermal stability | high | good dissolution rate | 81 µg/mL (≈ 330 µM) |  | 
3 | CCC(=O)NC[C@@H]1C[C@H]1c1cccc2c1CCO2 [crystal form II, (1R-2R)—N-[2-(2,3-dihydrobenzofuran-4-yl)cyclopropylmethyl]propanamide] |  |  | good thermal stability | high in water, especially for crystal form II compared to crystal form I; also recorded: good dissolution rate, especially for crystal form II compared to form I |  |  | approximately 200 °C | 104 µg/mL (≈ 424 µM)
